# Experiments:
# Experiment in all cases: KINOMEscan kinase profiling
# Type in all cases: binding
# ULK2 = molecular target: T1, ULK2 (Homo sapiens, UniProt Q8IYT8); settings: read-out: %Inhibition by 10 μM SPA70
# T1 construct: purchased DiscoverX (Ambit Biosciences) KINOMEscan
# In short: (§1)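 KINOMEscan profiling followed a published protocol. Kinases whose inhibition exceeded a set cut-off were then tested in a dilution series beginning at 30 µM.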
# MYO3B = molecular target: T2, MYO3B (Homo sapiens, UniProt Q8WXR4); settings: read-out: %Inhibition by 10 μM SPA70
# T2 construct: purchased DiscoverX (Ambit Biosciences) KINOMEscan
# In short: as §1
# AMPK-alpha2 = molecular target: T3, AMPK-alpha2 (Homo sapiens, UniProt P54646); settings: read-out: %Inhibition by 10 μM SPA70
# T3 construct: purchased DiscoverX (Ambit Biosciences) KINOMEscan
# In short: as §1
# GSK3B = molecular target: T4, GSK3B (Homo sapiens, UniProt P49841)
# T4 construct: purchased DiscoverX (Ambit Biosciences) KINOMEscan
# T4 sequence (P49841 whole entry): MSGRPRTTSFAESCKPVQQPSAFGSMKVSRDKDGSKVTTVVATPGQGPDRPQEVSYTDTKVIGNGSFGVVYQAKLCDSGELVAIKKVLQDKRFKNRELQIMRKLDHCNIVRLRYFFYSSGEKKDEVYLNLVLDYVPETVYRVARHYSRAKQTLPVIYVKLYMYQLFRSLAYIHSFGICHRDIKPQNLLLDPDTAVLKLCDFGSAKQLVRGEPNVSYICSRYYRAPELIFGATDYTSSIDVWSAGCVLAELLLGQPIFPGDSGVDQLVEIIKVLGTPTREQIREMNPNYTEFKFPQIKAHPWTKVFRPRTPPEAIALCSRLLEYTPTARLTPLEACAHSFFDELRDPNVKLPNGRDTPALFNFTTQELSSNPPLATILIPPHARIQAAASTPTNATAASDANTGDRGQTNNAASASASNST
# In short: as §1
# ABL2 = molecular target: T5, ABL2 (Homo sapiens, UniProt P42684); settings: read-out: %Inhibition by 10 μM SPA70
# T5 construct: purchased DiscoverX (Ambit Biosciences) KINOMEscan
# In short: as §1
# SRPK1 = molecular target: T6, SRPK1 (Homo sapiens, UniProt Q96SB4); settings: read-out: %Inhibition by 10 μM SPA70
# T6 construct: purchased DiscoverX (Ambit Biosciences) KINOMEscan
# In short: as §1
# IRAK1 = molecular target: T7, IRAK1 (Homo sapiens, UniProt P51617); settings: read-out: %Inhibition by 10 μM SPA70
# T7 construct: purchased DiscoverX (Ambit Biosciences) KINOMEscan
# In short: as §1
# [1] = molecular target: T8, JAK3(JH1domain-catalytic) (Homo sapiens, UniProt P52333); settings: read-out: %Inhibition by 10 μM SPA70
# T8 construct: JAK3(JH1domain-catalytic); purchased DiscoverX (Ambit Biosciences) KINOMEscan
# T8 sequence (P52333 822-1124 limits assumed): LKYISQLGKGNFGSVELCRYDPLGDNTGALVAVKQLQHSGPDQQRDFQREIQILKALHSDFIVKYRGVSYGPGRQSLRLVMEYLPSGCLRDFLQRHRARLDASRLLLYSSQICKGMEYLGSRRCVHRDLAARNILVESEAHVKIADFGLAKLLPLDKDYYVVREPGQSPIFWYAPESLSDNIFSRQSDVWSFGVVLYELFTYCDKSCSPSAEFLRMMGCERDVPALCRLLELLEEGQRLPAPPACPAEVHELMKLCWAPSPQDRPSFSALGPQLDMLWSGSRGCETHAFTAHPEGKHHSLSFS
# In short: as §1
# CDKL1 = molecular target: T9, CDKL1 (Homo sapiens, UniProt Q00532); settings: read-out: %Inhibition by 10 μM SPA70
# T9 construct: purchased DiscoverX (Ambit Biosciences) KINOMEscan
# T9 sequence (Q00532 whole entry): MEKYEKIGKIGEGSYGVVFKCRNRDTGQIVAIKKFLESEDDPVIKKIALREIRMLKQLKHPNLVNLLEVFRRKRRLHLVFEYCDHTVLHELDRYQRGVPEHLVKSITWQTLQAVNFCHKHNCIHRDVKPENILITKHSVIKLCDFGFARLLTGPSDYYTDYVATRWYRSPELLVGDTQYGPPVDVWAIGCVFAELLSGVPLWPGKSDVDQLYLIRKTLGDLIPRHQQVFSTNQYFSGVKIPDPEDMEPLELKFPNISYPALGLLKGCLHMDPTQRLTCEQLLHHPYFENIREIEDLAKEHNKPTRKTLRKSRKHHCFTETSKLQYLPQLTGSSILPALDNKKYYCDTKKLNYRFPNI
# In short: as §1
# PLK1 = molecular target: T10, PLK1 (Homo sapiens, UniProt P53350); settings: read-out: %Inhibition by 10 μM SPA70
# T10 construct: purchased DiscoverX (Ambit Biosciences) KINOMEscan
# In short: as §1
# AURKB = molecular target: T11, AURKB (Homo sapiens, UniProt Q96GD4); settings: read-out: %Inhibition by 10 μM SPA70
# T11 construct: purchased DiscoverX (Ambit Biosciences) KINOMEscan
# In short: as §1
# NEK7 = molecular target: T12, NEK7 (Homo sapiens, UniProt Q8TDX7); settings: read-out: %Inhibition by 10 μM SPA70
# T12 construct: purchased DiscoverX (Ambit Biosciences) KINOMEscan
# In short: as §1
# ROCK2 = molecular target: T13, ROCK2 (Homo sapiens, UniProt O75116); settings: read-out: %Inhibition by 10 μM SPA70
# T13 construct: purchased DiscoverX (Ambit Biosciences) KINOMEscan
# In short: as §1
# PIK3C2B = molecular target: T14, PIK3C2B (Homo sapiens, UniProt O00750); settings: read-out: %Inhibition by 10 μM SPA70
# T14 construct: purchased DiscoverX (Ambit Biosciences) KINOMEscan
# T14 sequence (O00750 whole entry): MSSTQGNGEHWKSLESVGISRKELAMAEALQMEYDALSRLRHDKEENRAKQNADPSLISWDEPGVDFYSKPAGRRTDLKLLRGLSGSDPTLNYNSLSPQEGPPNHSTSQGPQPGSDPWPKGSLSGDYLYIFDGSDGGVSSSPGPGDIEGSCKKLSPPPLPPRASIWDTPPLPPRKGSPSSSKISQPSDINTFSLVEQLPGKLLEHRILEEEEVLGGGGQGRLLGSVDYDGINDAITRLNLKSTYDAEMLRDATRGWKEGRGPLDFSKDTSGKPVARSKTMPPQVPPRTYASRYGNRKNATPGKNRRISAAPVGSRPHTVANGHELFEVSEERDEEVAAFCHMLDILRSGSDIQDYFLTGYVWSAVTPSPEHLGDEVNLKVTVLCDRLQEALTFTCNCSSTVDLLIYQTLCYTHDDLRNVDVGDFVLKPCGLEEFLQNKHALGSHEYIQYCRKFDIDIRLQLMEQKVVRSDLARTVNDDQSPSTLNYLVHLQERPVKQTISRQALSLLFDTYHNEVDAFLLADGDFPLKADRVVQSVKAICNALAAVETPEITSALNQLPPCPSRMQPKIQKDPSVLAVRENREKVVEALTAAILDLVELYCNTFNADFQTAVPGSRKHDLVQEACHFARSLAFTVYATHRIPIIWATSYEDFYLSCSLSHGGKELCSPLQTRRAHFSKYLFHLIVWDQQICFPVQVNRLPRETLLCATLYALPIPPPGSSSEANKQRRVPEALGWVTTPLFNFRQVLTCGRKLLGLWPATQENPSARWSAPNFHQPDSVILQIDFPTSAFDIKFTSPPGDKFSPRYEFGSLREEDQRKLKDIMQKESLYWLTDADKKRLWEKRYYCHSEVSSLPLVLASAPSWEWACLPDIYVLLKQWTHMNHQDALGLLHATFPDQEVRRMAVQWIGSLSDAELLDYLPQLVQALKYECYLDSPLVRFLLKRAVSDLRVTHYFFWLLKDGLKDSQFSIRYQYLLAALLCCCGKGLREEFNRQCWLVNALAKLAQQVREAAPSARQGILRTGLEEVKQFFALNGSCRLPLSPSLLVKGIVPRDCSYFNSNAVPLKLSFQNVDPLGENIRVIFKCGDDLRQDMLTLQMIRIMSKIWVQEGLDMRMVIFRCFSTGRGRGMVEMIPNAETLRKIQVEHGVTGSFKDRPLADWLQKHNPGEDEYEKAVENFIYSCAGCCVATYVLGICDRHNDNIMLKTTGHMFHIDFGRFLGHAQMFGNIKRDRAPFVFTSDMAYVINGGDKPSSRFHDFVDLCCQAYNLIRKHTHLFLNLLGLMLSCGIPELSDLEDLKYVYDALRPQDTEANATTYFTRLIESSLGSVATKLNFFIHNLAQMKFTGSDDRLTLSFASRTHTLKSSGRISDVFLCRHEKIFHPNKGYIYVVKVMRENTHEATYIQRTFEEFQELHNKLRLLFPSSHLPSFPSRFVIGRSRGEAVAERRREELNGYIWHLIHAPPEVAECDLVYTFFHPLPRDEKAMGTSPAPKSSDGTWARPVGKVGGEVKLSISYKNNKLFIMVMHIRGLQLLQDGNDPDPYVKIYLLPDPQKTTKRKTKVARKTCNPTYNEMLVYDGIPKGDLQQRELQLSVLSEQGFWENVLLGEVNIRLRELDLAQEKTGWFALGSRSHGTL
# In short: as §1
# TGFBR2 = molecular target: T15, TGFBR2 (Homo sapiens, UniProt P37173); settings: read-out: %Inhibition by 10 μM SPA70
# T15 construct: purchased DiscoverX (Ambit Biosciences) KINOMEscan
# In short: as §1
# EPHB6 = molecular target: T16, EPHB6 (Homo sapiens, UniProt O15197); settings: read-out: %Inhibition by 10 μM SPA70
# T16 construct: purchased DiscoverX (Ambit Biosciences) KINOMEscan
# In short: as §1
# DDR2 = molecular target: T17, DDR2 (Homo sapiens, UniProt Q16832); settings: read-out: %Inhibition by 10 μM SPA70
# T17 construct: purchased DiscoverX (Ambit Biosciences) KINOMEscan
# T17 sequence (Q16832 22-855): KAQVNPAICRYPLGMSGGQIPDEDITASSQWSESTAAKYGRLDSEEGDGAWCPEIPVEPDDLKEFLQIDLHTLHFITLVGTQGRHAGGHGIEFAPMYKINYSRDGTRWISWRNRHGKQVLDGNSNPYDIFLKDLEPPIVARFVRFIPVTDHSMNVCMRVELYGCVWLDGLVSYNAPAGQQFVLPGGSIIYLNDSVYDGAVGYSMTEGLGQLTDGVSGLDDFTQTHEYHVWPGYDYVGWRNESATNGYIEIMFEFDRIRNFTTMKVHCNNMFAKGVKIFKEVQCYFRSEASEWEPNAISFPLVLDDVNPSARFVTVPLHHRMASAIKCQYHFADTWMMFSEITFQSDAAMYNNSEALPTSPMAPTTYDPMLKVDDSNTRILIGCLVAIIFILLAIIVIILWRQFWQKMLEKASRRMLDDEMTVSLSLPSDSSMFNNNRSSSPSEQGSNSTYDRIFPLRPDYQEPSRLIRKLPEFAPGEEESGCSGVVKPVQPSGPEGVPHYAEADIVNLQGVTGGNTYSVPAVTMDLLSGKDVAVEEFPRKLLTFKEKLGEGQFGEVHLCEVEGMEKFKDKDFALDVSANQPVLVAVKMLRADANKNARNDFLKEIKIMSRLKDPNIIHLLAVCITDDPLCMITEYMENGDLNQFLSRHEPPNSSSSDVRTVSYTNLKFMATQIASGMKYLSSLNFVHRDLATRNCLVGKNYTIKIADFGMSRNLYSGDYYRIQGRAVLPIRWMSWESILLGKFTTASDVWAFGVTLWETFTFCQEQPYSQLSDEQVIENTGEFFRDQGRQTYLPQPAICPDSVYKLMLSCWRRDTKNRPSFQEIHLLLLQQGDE
# In short: as §1
# CAMK2G = molecular target: T18, CAMK2G (Homo sapiens, UniProt Q13555); settings: read-out: %Inhibition by 10 μM SPA70
# T18 construct: purchased DiscoverX (Ambit Biosciences) KINOMEscan
# In short: as §1
# DLK = molecular target: T19, DLK (Homo sapiens, UniProt Q12852)
# T19 construct: purchased DiscoverX (Ambit Biosciences) KINOMEscan
# T19 sequence (Q12852 whole entry): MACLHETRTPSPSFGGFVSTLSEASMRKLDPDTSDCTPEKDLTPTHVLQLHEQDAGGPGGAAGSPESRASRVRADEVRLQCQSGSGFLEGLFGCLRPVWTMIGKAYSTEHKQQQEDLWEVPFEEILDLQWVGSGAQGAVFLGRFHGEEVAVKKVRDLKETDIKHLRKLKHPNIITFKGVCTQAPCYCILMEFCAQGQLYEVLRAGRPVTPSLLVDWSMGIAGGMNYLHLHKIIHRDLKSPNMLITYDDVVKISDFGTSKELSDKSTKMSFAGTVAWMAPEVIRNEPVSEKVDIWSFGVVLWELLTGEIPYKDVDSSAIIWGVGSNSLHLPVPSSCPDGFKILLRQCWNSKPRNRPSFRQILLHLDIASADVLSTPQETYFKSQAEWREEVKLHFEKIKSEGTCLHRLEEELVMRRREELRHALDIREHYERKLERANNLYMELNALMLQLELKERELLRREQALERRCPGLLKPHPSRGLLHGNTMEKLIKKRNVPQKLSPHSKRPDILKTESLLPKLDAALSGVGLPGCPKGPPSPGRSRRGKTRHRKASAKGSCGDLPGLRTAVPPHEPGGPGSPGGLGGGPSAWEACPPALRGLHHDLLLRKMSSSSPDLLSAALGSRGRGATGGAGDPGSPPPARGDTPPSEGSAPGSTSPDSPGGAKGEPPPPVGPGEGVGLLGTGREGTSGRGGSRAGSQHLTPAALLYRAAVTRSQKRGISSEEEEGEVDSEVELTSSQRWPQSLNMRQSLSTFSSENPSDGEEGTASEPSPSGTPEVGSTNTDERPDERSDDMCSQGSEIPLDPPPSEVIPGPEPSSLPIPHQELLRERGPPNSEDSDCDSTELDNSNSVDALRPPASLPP
# In short: as §1
# TAOK3 = molecular target: T20, TAOK3 (Homo sapiens, UniProt Q9H2K8); settings: read-out: %Inhibition by 10 μM SPA70
# T20 construct: purchased DiscoverX (Ambit Biosciences) KINOMEscan
# In short: as §1
# AMPK-alpha1 = molecular target: T21, AMPK-alpha1 (Homo sapiens, UniProt Q13131); settings: read-out: %Inhibition by 10 μM SPA70
# T21 construct: purchased DiscoverX (Ambit Biosciences) KINOMEscan
# In short: as §1
# LOK = molecular target: T22, LOK (Homo sapiens, UniProt O94804)
# T22 construct: purchased DiscoverX (Ambit Biosciences) KINOMEscan
# In short: as §1
# GRK7 = molecular target: T23, GRK7 (Homo sapiens, UniProt Q8WTQ7); settings: read-out: %Inhibition by 10 μM SPA70
# T23 construct: purchased DiscoverX (Ambit Biosciences) KINOMEscan
# In short: as §1
# CSNK1E = molecular target: T24, CSNK1E (Homo sapiens, UniProt P49674); settings: read-out: %Inhibition by 10 μM SPA70
# T24 construct: purchased DiscoverX (Ambit Biosciences) KINOMEscan
# In short: as §1
# VRK2 = molecular target: T25, VRK2 (Homo sapiens, UniProt Q86Y07); settings: read-out: %Inhibition by 10 μM SPA70
# T25 construct: purchased DiscoverX (Ambit Biosciences) KINOMEscan
# In short: as §1
# CLK1 = molecular target: T26, CLK1 (Homo sapiens, UniProt P49759); settings: read-out: %Inhibition by 10 μM SPA70
# T26 construct: purchased DiscoverX (Ambit Biosciences) KINOMEscan
# In short: as §1
# IRAK4 = molecular target: T27, IRAK4 (Homo sapiens, UniProt Q9NWZ3)
# T27 construct: purchased DiscoverX (Ambit Biosciences) KINOMEscan
# In short: as §1
# DCAMKL2 = molecular target: T28, DCAMKL2 (Homo sapiens, UniProt Q8N568); settings: read-out: %Inhibition by 10 μM SPA70
# T28 construct: purchased DiscoverX (Ambit Biosciences) KINOMEscan
# In short: as §1
# NLK = molecular target: T29, NLK (Homo sapiens, UniProt Q9UBE8); settings: read-out: %Inhibition by 10 μM SPA70
# T29 construct: purchased DiscoverX (Ambit Biosciences) KINOMEscan
# In short: as §1
# MLK2 = molecular target: T30, MLK2 (Homo sapiens, UniProt Q02779); settings: read-out: %Inhibition by 10 μM SPA70
# T30 construct: purchased DiscoverX (Ambit Biosciences) KINOMEscan
# In short: as §1
# CAMK2B = molecular target: T31, CAMK2B (Homo sapiens, UniProt Q13554); settings: read-out: %Inhibition by 10 μM SPA70
# T31 construct: purchased DiscoverX (Ambit Biosciences) KINOMEscan
# In short: as §1
# [2] = molecular target: T32, RSK1(Kin.Dom.2-C-terminal) (Homo sapiens, UniProt Q15418); settings: read-out: %Inhibition by 10 μM SPA70
# T32 construct: RSK1(Kin.Dom.2-C-terminal); purchased DiscoverX (Ambit Biosciences) KINOMEscan
# In short: as §1
# NEK3 = molecular target: T33, NEK3 (Homo sapiens, UniProt P51956); settings: read-out: %Inhibition by 10 μM SPA70
# T33 construct: purchased DiscoverX (Ambit Biosciences) KINOMEscan
# In short: as §1
# BMPR1B = molecular target: T34, BMPR1B (Homo sapiens, UniProt O00238); settings: read-out: %Inhibition by 10 μM SPA70
# T34 construct: purchased DiscoverX (Ambit Biosciences) KINOMEscan
# In short: as §1
# SIK2 = molecular target: T35, SIK2 (Homo sapiens, UniProt Q9H0K1); settings: read-out: %Inhibition by 10 μM SPA70
# T35 construct: purchased DiscoverX (Ambit Biosciences) KINOMEscan
# In short: as §1
# CAMKK2 = molecular target: T36, CAMKK2 (Homo sapiens, UniProt Q96RR4); settings: read-out: %Inhibition by 10 μM SPA70
# T36 construct: purchased DiscoverX (Ambit Biosciences) KINOMEscan
# In short: as §1
# AKT2 = molecular target: T37, AKT2 (Homo sapiens, UniProt P31751); settings: read-out: %Inhibition by 10 μM SPA70
# T37 construct: purchased DiscoverX (Ambit Biosciences) KINOMEscan
# In short: as §1
# MKNK1 = molecular target: T38, MKNK1 (Homo sapiens, UniProt Q9BUB5); settings: read-out: %Inhibition by 10 μM SPA70
# T38 construct: purchased DiscoverX (Ambit Biosciences) KINOMEscan
# T38 sequence (Q9BUB5 whole entry): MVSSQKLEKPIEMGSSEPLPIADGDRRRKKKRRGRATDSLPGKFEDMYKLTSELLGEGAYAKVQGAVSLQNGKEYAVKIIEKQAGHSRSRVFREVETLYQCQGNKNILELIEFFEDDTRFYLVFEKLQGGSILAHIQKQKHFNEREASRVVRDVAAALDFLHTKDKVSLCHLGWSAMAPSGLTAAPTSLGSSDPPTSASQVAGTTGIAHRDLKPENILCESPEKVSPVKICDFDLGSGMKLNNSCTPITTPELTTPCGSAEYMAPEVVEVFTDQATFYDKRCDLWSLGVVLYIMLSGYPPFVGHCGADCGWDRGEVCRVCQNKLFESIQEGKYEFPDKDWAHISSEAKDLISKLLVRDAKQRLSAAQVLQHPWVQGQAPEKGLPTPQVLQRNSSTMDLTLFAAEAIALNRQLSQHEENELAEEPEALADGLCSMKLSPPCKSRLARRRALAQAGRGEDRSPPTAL
# In short: as §1
# MINK = molecular target: T39, MINK (Homo sapiens, UniProt Q8N4C8); settings: read-out: %Inhibition by 10 μM SPA70
# T39 construct: purchased DiscoverX (Ambit Biosciences) KINOMEscan
# In short: as §1
# IGF1R = molecular target: T40, IGF1R (Homo sapiens, UniProt P08069); settings: read-out: %Inhibition by 10 μM SPA70
# T40 construct: purchased DiscoverX (Ambit Biosciences) KINOMEscan
# In short: as §1
# p38-gamma = molecular target: T41, p38-gamma (Homo sapiens, UniProt P53778); settings: read-out: %Inhibition by 10 μM SPA70
# T41 construct: purchased DiscoverX (Ambit Biosciences) KINOMEscan
# In short: as §1
structure (smiles),measurement,setting,value
COc1ccc(OC)c(-n2nnc(S(=O)(=O)c3ccc(C(C)(C)C)cc3)c2C)c1 [SPA70],inhibition at 10 µM,ULK2,0%
same,inhibition at 10 µM,MYO3B,5%
same,inhibition at 10 µM,AMPK-alpha2,9%
same,%Inhibition by 10 μM SPA70,GSK3B,not inhibited
same,inhibition at 10 µM,GSK3B; read-out: %Inhibition by 10 μM SPA70,0%
same,inhibition at 10 µM,ABL2,0%
same,inhibition at 10 µM,SRPK1,0%
same,inhibition at 10 µM,IRAK1,0%
same,inhibition at 10 µM,[1],5%
same,inhibition at 10 µM,CDKL1,9%
same,inhibition at 10 µM,PLK1,0%
same,inhibition at 10 µM,AURKB,8%
same,inhibition at 10 µM,NEK7,0%
same,inhibition at 10 µM,ROCK2,13%
same,inhibition at 10 µM,PIK3C2B,0%
same,inhibition at 10 µM,TGFBR2,1%
same,inhibition at 10 µM,EPHB6,0%
same,inhibition at 10 µM,DDR2,0%
same,inhibition at 10 µM,CAMK2G,1%
same,%Inhibition by 10 μM SPA70,DLK,4%
same,inhibition at 10 µM,TAOK3,2%
same,inhibition at 10 µM,AMPK-alpha1,0%
same,%Inhibition by 10 μM SPA70,LOK,0%
same,inhibition at 10 µM,GRK7,0%
same,inhibition at 10 µM,CSNK1E,0%
same,inhibition at 10 µM,VRK2,0%
same,inhibition at 10 µM,CLK1,0%
same,%Inhibition by 10 μM SPA70,IRAK4,0%
same,inhibition at 10 µM,DCAMKL2,0%
same,inhibition at 10 µM,NLK,16%
same,inhibition at 10 µM,MLK2,0%
same,inhibition at 10 µM,CAMK2B,13%
same,inhibition at 10 µM,[2],12%
same,inhibition at 10 µM,NEK3,0%
same,inhibition at 10 µM,BMPR1B,0%
same,inhibition at 10 µM,SIK2,0%
same,inhibition at 10 µM,CAMKK2,0%
same,inhibition at 10 µM,AKT2,0%
same,inhibition at 10 µM,MKNK1,44%
same,inhibition at 10 µM,MINK,0%
same,inhibition at 10 µM,IGF1R,0%
same,inhibition at 10 µM,p38-gamma,8%
